# Results as given in patent US8546389B2 (priority 2010, dated 2013).
# Where two headings read alike, the source gives them in different places.
# Assays:
# [1] = tested on: genotype 1b (Con 1) subgenomic replicon cell line; test: HCV replicon assay, genotype 1b (Renilla luciferase); assay type: cell-based, HCV genotype 1b (Con 1); conditions: genotype 1b replicon
# In short: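 Subgenomic replicon cells expressing Renilla luciferase (1b Con1; 1a and 2a lines by the same method) seeded at 7000 cells/well (5000 for 2a) without G418, exposed to 3-fold compound dilutions for 72 h at 37 °C. Luciferase activity measured; EC50 by non-linear regression.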
# [2] = tested on: subgenomic genotype 1a replicon cell line; test: HCV replicon assay, genotype 1a; assay type: cell-based, HCV genotype 1a
# Protocol: (§1) A genotype 1b (Con 1) subgenomic replicon cell line based on Blight et al., Science 2000 290: 1972-1974, modified to express a Renilla luciferase reporter gene was used to assess antiviral activity of test compounds. Cell cultures were maintained in a sub-confluent state in DMEM with glutamine, 10% heat-inactivated foetal bovine serum (FBS) and G418 (Geneticin®).
# (§2) For assay, cells were seeded at a density of 7000 cells/well into 96 well tissue culture trays in culture media lacking G418. Compounds were tested in a three fold dilution series, for example starting from 50 uM. After 72 hours incubation at 37° C. and 5% CO2, Renilla luciferase activity was quantified via the Promega Renilla Luciferase or Renilla-Glo™ Luciferase Assay Systems (Promega corporation. The same method was employed for replicon assays using subgenomic genotype 1a and 2a replicon cell lines with a seeding cell density of 5000 cells/well for the 2a cell lines.
# (§3) The compound concentration that reduced luciferase activity by 50% (EC50) was calculated using non-linear regression.
# [3] = biological target: genotype 3a (VRL-69) NS5bΔ21 polymerase (Hepatitis C virus genotype 3a, UniProt Q81258); test: HCV polymerase inhibition assay, genotype 3a; assay type: biochemical, HCV genotype 3a (VRL-69)
# Chain of genotype 3a (VRL-69) NS5bΔ21 polymerase (Q81258 whole entry, looked up, stated change not applied): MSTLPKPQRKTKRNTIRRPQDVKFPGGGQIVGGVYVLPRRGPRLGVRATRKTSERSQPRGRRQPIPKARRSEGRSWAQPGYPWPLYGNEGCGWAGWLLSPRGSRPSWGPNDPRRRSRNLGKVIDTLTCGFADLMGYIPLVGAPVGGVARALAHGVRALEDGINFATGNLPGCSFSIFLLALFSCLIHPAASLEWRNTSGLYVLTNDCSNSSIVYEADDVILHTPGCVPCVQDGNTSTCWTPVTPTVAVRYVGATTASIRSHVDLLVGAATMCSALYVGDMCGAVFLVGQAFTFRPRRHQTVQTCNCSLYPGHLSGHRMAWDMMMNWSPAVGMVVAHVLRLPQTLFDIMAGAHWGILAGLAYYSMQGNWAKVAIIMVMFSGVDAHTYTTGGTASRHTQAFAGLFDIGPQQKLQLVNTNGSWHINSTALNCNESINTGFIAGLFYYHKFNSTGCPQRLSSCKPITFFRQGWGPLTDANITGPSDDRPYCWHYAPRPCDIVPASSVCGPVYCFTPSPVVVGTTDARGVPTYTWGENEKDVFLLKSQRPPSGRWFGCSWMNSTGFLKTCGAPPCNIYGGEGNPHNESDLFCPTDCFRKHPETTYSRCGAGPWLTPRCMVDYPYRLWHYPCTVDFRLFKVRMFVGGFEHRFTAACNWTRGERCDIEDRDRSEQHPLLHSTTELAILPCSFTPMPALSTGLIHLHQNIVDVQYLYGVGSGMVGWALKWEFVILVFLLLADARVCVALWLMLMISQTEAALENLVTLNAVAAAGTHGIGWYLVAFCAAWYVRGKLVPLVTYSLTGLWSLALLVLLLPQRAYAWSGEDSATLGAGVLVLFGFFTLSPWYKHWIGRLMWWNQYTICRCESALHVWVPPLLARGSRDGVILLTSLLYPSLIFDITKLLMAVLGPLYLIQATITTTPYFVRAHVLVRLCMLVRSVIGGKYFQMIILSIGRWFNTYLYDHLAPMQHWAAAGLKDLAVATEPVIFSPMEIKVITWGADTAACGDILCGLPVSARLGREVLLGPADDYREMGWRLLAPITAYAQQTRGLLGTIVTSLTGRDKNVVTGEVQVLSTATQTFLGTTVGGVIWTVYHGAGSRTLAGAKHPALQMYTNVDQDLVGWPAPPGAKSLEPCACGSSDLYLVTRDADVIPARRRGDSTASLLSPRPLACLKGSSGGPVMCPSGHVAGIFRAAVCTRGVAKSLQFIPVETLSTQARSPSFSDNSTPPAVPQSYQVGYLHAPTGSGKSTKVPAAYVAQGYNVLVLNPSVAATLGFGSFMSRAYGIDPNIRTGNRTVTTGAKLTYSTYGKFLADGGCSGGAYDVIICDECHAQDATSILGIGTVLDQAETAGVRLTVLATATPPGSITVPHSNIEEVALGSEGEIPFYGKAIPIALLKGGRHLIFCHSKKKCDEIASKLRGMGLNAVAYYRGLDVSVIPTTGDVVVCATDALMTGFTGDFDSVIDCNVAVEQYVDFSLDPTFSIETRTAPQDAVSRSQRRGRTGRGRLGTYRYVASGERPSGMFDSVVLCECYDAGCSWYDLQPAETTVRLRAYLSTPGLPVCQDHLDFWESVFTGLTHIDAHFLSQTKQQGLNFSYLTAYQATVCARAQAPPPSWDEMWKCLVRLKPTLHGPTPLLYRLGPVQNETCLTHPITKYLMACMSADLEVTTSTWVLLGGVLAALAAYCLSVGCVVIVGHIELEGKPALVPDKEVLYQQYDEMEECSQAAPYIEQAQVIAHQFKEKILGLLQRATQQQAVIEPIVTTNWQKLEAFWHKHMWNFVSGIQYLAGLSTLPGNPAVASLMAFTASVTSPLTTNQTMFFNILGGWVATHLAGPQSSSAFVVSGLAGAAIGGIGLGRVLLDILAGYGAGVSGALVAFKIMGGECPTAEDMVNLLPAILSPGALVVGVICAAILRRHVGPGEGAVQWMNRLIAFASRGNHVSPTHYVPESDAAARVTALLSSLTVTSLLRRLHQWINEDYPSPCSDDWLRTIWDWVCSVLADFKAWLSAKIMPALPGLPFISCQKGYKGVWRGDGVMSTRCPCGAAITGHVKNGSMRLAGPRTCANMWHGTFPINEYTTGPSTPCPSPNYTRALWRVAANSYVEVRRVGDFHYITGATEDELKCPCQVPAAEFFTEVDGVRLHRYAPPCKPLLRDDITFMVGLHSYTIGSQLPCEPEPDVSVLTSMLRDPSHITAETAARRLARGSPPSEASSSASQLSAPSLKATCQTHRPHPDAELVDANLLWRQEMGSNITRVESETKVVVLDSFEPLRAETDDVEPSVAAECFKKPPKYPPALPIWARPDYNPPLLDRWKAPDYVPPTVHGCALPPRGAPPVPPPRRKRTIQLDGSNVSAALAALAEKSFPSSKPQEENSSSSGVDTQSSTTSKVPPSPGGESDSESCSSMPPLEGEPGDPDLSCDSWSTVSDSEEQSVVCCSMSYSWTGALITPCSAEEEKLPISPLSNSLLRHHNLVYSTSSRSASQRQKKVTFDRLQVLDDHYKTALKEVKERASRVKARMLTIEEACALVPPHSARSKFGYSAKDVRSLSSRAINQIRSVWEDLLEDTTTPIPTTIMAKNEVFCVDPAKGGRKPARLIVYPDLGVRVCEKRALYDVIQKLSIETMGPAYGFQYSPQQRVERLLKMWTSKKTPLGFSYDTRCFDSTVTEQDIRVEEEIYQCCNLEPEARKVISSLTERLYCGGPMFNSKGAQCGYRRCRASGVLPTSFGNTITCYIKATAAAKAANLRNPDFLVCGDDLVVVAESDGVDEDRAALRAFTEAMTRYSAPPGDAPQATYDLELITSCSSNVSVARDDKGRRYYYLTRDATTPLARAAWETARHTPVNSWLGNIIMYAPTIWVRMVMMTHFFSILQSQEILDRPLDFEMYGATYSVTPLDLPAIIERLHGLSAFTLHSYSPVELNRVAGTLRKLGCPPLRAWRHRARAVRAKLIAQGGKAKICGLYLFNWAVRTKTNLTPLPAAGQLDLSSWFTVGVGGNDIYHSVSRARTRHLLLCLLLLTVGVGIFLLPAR
# Protocol: HCV polymerase reactions were carried out using a modified method of Howe et al., Antimicrobial Agents and Chemotherapy 2004 48(12): 4813-4821. Reactions contained a final concentration of, 0.5% DMSO, 50 nM, 1b (BK) NS5bΔ21, 20 mM Tris-HCl pH 7.5, 5 mM MgCl2, 5 mM MnCl2, 3 mM DTT, 0.05% BSA, 0.2 U/μL RNasin, 10 μg/mL Poly(rC) template, GTP (at Km) and 0.05 μCi/μL ^33P-GTP in a total reaction volume of 50 μL. Compounds were tested in a three fold dilution series, for example starting from 50 μM. Reactions were initiated with the addition of GTP and terminated after 1 hour with 50 μL ice cold 0.2 M EDTA. Terminated reactions were transferred to DEAE 96-well filter plates, unincorporated nucleotides washed from the filters and 50 μL scintillation fluid added prior to reading on a scintillation counter. Similarly, a genotype 3a (VRL-69) NS5bΔ21 polymerase enzyme assay was conducted using essentially the same method.
# The compound concentration that reduced ^33P-GTP incorporation by 50% (IC50) was calculated using non-linear regression.
# [4] = biological target: 1b (BK) NS5bΔ21 (Hepatitis C virus genotype 1b (isolate BK) (HCV), UniProt P26663); test: HCV polymerase inhibition assay, genotype 1b; assay type: biochemical, HCV genotype 1b (BK)
# Chain of 1b (BK) NS5bΔ21 (P26663 2420-2989): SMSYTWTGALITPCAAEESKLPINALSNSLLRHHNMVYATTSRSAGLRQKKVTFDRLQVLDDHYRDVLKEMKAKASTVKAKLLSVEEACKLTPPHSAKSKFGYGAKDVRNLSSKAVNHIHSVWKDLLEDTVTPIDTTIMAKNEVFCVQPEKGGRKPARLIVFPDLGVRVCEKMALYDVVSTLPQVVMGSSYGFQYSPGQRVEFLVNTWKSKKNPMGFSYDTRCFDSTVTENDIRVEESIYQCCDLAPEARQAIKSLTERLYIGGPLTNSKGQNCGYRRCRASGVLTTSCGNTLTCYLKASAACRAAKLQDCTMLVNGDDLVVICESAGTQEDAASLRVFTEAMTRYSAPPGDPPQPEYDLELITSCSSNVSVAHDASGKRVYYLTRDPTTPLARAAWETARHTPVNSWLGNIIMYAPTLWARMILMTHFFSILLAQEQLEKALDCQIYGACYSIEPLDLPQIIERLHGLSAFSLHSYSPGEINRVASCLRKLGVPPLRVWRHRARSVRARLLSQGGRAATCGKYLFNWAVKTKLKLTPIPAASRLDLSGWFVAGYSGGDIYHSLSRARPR
# In short: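 Both genotype 1b and 3a enzymes assayed identically: ^33P-GTP incorporation on poly(rC) template, GTP at Km, 50 nM NS5bΔ21, pH 7.5 Tris with 5 mM MgCl2 and MnCl2, 1 h reaction ended by cold EDTA. Filter-bound label counted; IC50 fitted by non-linear regression across three-fold dilution series.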
# [5] = tested on: subgenomic genotype 2a replicon cell line; test: HCV replicon assay, genotype 2a; assay type: cell-based, HCV genotype 2a
# Protocol: as §1, §2, §3
# [6] = Hepatitis C virus, 72 hours, luciferase, read-out: genotype 1b EC50 (range class)
# [7] = Hepatitis C virus, read-out: Replicon 1b EC50
# [8] = genotype 3a, read-out: 3a NS5b polymerase IC50
# [9] = 1b (BK) NS5bΔ21, 33P-GTP incorporation, read-out: 1b polymerase IC50 (range class)
# [10] = genotype 1b, read-out: 1b NS5b polymerase IC50
Structure (SMILES),"EC50 [1, 6] [nM]","EC50 [1, 7] [nM]",EC50 ([2]; Hepatitis C virus) [nM],"IC50 [3, 8] [nM]","IC50 [4, 9] [nM]","IC50 [4, 10] [nM]",EC50 ([5]; Hepatitis C virus) [nM],EC50 ([1]; read-out: Replicon 1b EC50) [nM],EC50 [2] [nM],EC50 [5] [nM],IC50 [3] [nM]
"CNC(=O)c1c2cc(C3CC3)c(N(CCCO)S(C)(=O)=O)cc2nn1-c1ccc(Br)cc1 [Compound 4, 2-(4-bromophenyl)-5-cyclopropyl-6-[(3-hydroxypropyl)(methylsulfonyl)amino]-N-methyl-2H-indazole-3-carboxamide]",< 990,90,210,10,< 990,170,940,,,,
"CNC(=O)c1c2cc(C3CC3)c(N(CCCO)S(C)(=O)=O)cc2nn1-c1ccc(Nc2ccccc2F)cc1 [Compound 5, 5-cyclopropyl-2-{4-[(2-fluorophenyl)amino]phenyl}-6-[(3-hydroxypropyl)(methylsulfonyl)amino]-N-methyl-2H-indazole-3-carboxamide]",< 990,130,50,40,< 990,70,320,,,,
CNC(=O)c1c2cc(C3CC3)c(N(CCCO)S(C)(=O)=O)cc2nn1-c1ccc(Nc2ccc(F)cc2)cc1 [Compound 21],< 990,460,290,40,< 990,40,340,,,,
CCN(c1cc2nn(-c3ccc(Nc4ccc(F)cc4)cc3)c(C(=O)NC)c2cc1C1CC1)S(C)(=O)=O [Compound 22],< 990,70,380,20,< 990,110,340,,,,
CCN(c1cc2nn(-c3ccc(Oc4ccccc4F)cc3)c(C(=O)NC)c2cc1C1CC1)S(C)(=O)=O [Compound 28],< 990,100,740,20,< 990,120,200,,,,
"CNC(=O)c1c2cc(C3CC3)c(N(CCCO)S(C)(=O)=O)cc2nn1-c1ccc(Cl)cc1 [Compound 54, 2-(4-Chlorophenyl-1)-5-cyclopropyl-6-[3-hydroxypropyl(methylsulfonyl)amino]-N-methyl-indazole-3-carboxamide]",,,,20,,360,,100,300,1030,
"CNC(=O)c1c2cc(C3CC3)c(N(CCCNC(C)=O)S(C)(=O)=O)cc2nn1-c1ccc(Br)cc1 [Compound 59, 6-{[3-(Acetylamino)propyl](methylsulfonyl)amino}-2-(4-bromophenyl)-5-cyclopropyl-N-methyl-2H-indazole-3-carboxamide]",< 990,670,300,50,< 990,260,1430,,,,
CNC(=O)c1c2cc(C3CC3)c(N(CCCNC(=O)C3CCC3)S(C)(=O)=O)cc2nn1-c1ccc(Br)cc1 [Compound 62],,,,50,,180,,170,80,2860,
"CNC(=O)c1c2cc(C3CC3)c(N(CCCNC(=O)CCC(=O)OC)S(C)(=O)=O)cc2nn1-c1ccc(Br)cc1 [Compound 66, Methyl 4-[(3-{[2-(4-bromophenyl)-5-cyclopropyl-3-(methylcarbamoyl)-2H-indazol-6-yl](methylsulfonyl)amino}propyl)amino]-4-oxobutanoate]",< 990,120,20,,< 990,320,360,,,,80
CNC(=O)c1c2cc(C3CC3)c(N(CCC3COC(C)(C)OC3)S(C)(=O)=O)cc2nn1-c1ccc(Br)cc1 [Compound 95],,,,40,,70,,50,70,180,
C=CCN(c1cc2nn(-c3ccc(Br)cc3)c(C(=O)NC)c2cc1C1CC1)S(C)(=O)=O [Compound 98],,,,30,,100,,80,160,460,
"CNC(=O)c1c2cc(C3CC3)c(N(CCCSC)S(C)(=O)=O)cc2nn1-c1ccc(Br)cc1 [Compound 99, 2-(4-bromophenyl)-5-cyclopropyl-N-methyl-6-[3-methylsulfanylpropyl(methylsulfonyl)amino]-2H-indazole-3-carboxamide]",< 990,70,430,20,< 990,90,1080,,,,
CNC(=O)c1c2cc(C3CC3)c(N(CCCN3CCCCC3)S(C)(=O)=O)cc2nn1-c1ccc(Oc2ccc(F)cc2)cc1 [Compound 111],< 990,340,2920,260,1000 to 9990,1170,2050,,,,
